Reference: the supplement of paper PMC10307832

Key:
Experiment in all cases: relative viability (nuclei count vs DMSO), 5 days (fraction); higher = more cells survive
JZL-184 + Bortezomib = compound: C1CN(CCC1C(C2=CC3=C(C=C2)OCO3)(C4=CC5=C(C=C4)OCO5)O)C(=O)OC6=CC=C(C=C6)[N+](=O)[O-] [JZL-184] + CC(C)C[C@H](NC(=O)[C@H](Cc1ccccc1)NC(=O)c1cnccn1)B(O)O [Bortezomib] (partner 0.002 µM)
Procedure, shortened: (§1)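 Lung cancer cell lines in 1536-well plates were dosed by pin tool the day after seeding, either with one drug alone or with a fixed anchor-drug dose plus five library-drug doses (not always all listed) in √10 steps. After 5 days, cells were fixed and their nuclei stained in one step (final 0.05% Triton X-100, 1% formaldehyde, 1 ug/ml Hoechst), then counted on 4× images. Relative viability is the nuclei count in treated wells divided by that in vehicle wells. Values are medians of duplicate plates.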

JZL-184 + Linsitinib = compound: C1CN(CCC1C(C2=CC3=C(C=C2)OCO3)(C4=CC5=C(C=C4)OCO5)O)C(=O)OC6=CC=C(C=C6)[N+](=O)[O-] [JZL-184] + C[C@]1(O)C[C@@H](c2nc(-c3ccc4ccc(-c5ccccc5)nc4c3)c3c(N)nccn32)C1 [Linsitinib] (partner 1 µM)
Procedure, shortened: as §1

JZL-184 + Phenformin = compound: C1CN(CCC1C(C2=CC3=C(C=C2)OCO3)(C4=CC5=C(C=C4)OCO5)O)C(=O)OC6=CC=C(C=C6)[N+](=O)[O-] [JZL-184] + N=C(N)NC(=N)NCCc1ccccc1 [Phenformin] (partner 250 µM)
Procedure, shortened: as §1

JZL-184 + AZD7762 = compound: C1CN(CCC1C(C2=CC3=C(C=C2)OCO3)(C4=CC5=C(C=C4)OCO5)O)C(=O)OC6=CC=C(C=C6)[N+](=O)[O-] [JZL-184] + NC(=O)Nc1cc(-c2cccc(F)c2)sc1C(=O)N[C@H]1CCCNC1 [AZD7762] (partner 0.2 µM)
Procedure, shortened: as §1

JZL-184 + Decitabine = compound: C1CN(CCC1C(C2=CC3=C(C=C2)OCO3)(C4=CC5=C(C=C4)OCO5)O)C(=O)OC6=CC=C(C=C6)[N+](=O)[O-] [JZL-184] + Nc1ncn([C@H]2C[C@H](O)[C@@H](CO)O2)c(=O)n1 [Decitabine] (partner 2 µM)
Procedure, shortened: as §1

Row | Cell Line | relative viability (JZL-184 + Bortezomib; first compound 0.04 µM) | relative viability (JZL-184 + Bortezomib; first compound 0.4 µM) | relative viability (JZL-184 + Bortezomib; first compound 1.265 µM) | relative viability (JZL-184 + Bortezomib; first compound 4 µM) | relative viability (JZL-184 + Linsitinib; first compound 0.04 µM) | relative viability (JZL-184 + Linsitinib; first compound 0.4 µM) | relative viability (JZL-184 + Linsitinib; first compound 1.265 µM) | relative viability (JZL-184 + Linsitinib; first compound 4 µM) | relative viability (JZL-184 + Phenformin; first compound 0.04 µM) | relative viability (JZL-184 + Phenformin; first compound 0.4 µM) | relative viability (JZL-184 + Phenformin; first compound 1.265 µM) | relative viability (JZL-184 + Phenformin; first compound 4 µM) | relative viability (JZL-184 + AZD7762; first compound 0.04 µM) | relative viability (JZL-184 + AZD7762; first compound 0.4 µM) | relative viability (JZL-184 + AZD7762; first compound 1.265 µM) | relative viability (JZL-184 + AZD7762; first compound 4 µM) | relative viability (JZL-184 + Decitabine; first compound 0.04 µM) | relative viability (JZL-184 + Decitabine; first compound 0.4 µM) | relative viability (JZL-184 + Decitabine; first compound 1.265 µM) | relative viability (JZL-184 + Decitabine; first compound 4 µM)
1 | HCC-366 | 1.26 | 1.01 | 1.09 | 0.978 | 0.643 | 0.49 | 0.675 | 0.63 | 0.664 | 0.553 | 0.653 | 0.624 | 0.293 | 0.209 | 0.275 | 0.257 | 0.348 | 0.357 | 0.336 | 0.314
2 | IA-LM | 1.04 | 0.786 | 0.844 | 0.866 | 1.06 | 0.529 | 0.607 | 0.554 | – | – | – | – | – | – | – | – | – | – | – | –
3 | LK-2 | – | – | – | – | 0.733 | 0.559 | 0.662 | 0.583 | 0.374 | 0.676 | 0.678 | 0.416 | 0.438 | 0.501 | 0.422 | 0.411 | 0.254 | 0.198 | 0.273 | 0.304
4 | NCI-H358 | – | – | – | – | 0.889 | 0.738 | 0.848 | 0.708 | 0.422 | 0.32 | 0.304 | 0.328 | 0.585 | 0.639 | 0.569 | 0.51 | 0.241 | 0.211 | 0.237 | 0.21
5 | NCI-H520 | 0.648 | 0.479 | 0.582 | 0.531 | 1.15 | 0.929 | 0.926 | 0.897 | 0.533 | 0.48 | 0.739 | 0.485 | – | – | – | – | 0.546 | 0.545 | 0.503 | 0.477
6 | NCI-H522 | – | – | – | – | – | – | – | – | 0.606 | 0.667 | 0.59 | 0.635 | 0.898 | 0.706 | 0.885 | 0.781 | 0.689 | 0.615 | 0.685 | 0.611
7 | NCI-H661 | 0.763 | 0.803 | 0.796 | 0.889 | 0.542 | 0.477 | 0.712 | 0.521 | 0.259 | 0.287 | 0.292 | 0.332 | – | – | – | – | 0.624 | 0.526 | 0.518 | 0.537
8 | NCI-H1395 | – | – | – | – | 1.12 | 1.4 | 1.19 | 0.99 | 0.392 | 0.421 | 0.491 | 0.413 | 0.429 | 0.413 | 0.396 | 0.403 | 0.756 | 0.656 | 0.792 | 0.64
9 | NCI-H1650 | 0.192 | 0.179 | 0.228 | 0.198 | – | – | – | – | 0.427 | 0.411 | 0.524 | 0.357 | – | – | – | – | 0.405 | 0.464 | 0.471 | 0.425
10 | NCI-H1793 | – | – | – | – | 0.849 | 0.82 | 0.853 | 0.707 | 0.162 | 0.368 | 0.44 | 0.456 | 0.359 | 0.465 | 0.742 | 0.401 | 0.533 | 0.441 | 0.507 | 0.462
11 | NCI-H1944 | – | – | – | – | 1.18 | 1.2 | 1.28 | 1.16 | 0.194 | 0.192 | 0.198 | 0.199 | 0.556 | 0.469 | 0.531 | 0.54 | 0.451 | 0.416 | 0.407 | 0.391
12 | NCI-H2009 | 1.2 | 0.946 | 1.02 | 0.938 | 1.18 | 1.13 | 1.2 | 1.19 | 0.518 | 0.473 | 0.51 | 0.461 | – | – | – | – | 0.425 | 0.385 | 0.363 | 0.446
13 | NCI-H2023 | 1.03 | 0.947 | 1.01 | 0.865 | 0.664 | 0.756 | 0.757 | 0.522 | 0.477 | 0.342 | 0.469 | 0.35 | – | – | – | – | 0.254 | 0.225 | 0.175 | 0.213
14 | NCI-H2170 | – | – | – | – | – | – | – | – | 0.435 | 0.407 | 0.419 | 0.419 | 0.899 | 0.794 | 0.928 | 0.761 | 0.497 | 0.475 | 0.473 | 0.476
15 | NCI-H2228 | 1.1 | 1.01 | 0.995 | 0.835 | 0.642 | 0.892 | 0.636 | 0.616 | 0.405 | 0.239 | 0.317 | 0.412 | – | – | – | – | – | – | – | –
16 | NCI-H2342 | – | – | – | – | – | – | – | – | 0.598 | 0.534 | 0.635 | 0.697 | 0.556 | 0.39 | 0.563 | 0.6 | 0.736 | 0.691 | 0.716 | 0.817
17 | SK-LU-1 | 0.929 | 1.06 | 1.29 | 1.16 | 1.29 | 1.02 | 1.11 | 1.11 | 0.528 | 0.504 | 0.677 | 0.564 | – | – | – | – | 0.673 | 0.584 | 0.705 | 0.698
18 | SK-MES-1 | – | – | – | – | 1.07 | 1.04 | 1.1 | 1.06 | 0.736 | 0.64 | 0.688 | 0.615 | – | – | – | – | 0.448 | 0.381 | 0.405 | 0.403
19 | SW 900 | – | – | – | – | – | – | – | – | 0.595 | 0.506 | 0.555 | 0.748 | 0.573 | 0.756 | 0.627 | 0.594 | 0.465 | 0.416 | 0.465 | 0.451
20 | SW 1573 | 1.14 | 0.935 | 1.08 | 0.976 | 0.856 | 0.833 | 0.781 | 0.814 | 0.446 | 0.296 | 0.373 | 0.283 | – | – | – | – | 0.818 | 0.449 | 0.484 | 0.463
21 | UMC-11 | 0.79 | 0.723 | 0.571 | 0.673 | 1.43 | 0.935 | 1.09 | 0.944 | 0.289 | 0.319 | 0.3 | 0.331 | – | – | – | – | 0.738 | 0.521 | 0.616 | 0.733
